From patent US7169808B2, “Compounds useful for the preparation of medicaments with phosphodiesterase IV inhibitory activity” (Sigma-Tau Industrie Farmaceutiche Riunite S.p.A., priority 2000, dated 2007)

What was measured:
[1] = system: PDE IV; assay: PDE IV inhibition at a single concentration; type: biochemical; conditions: human; concentration 100 μM
Description: Assays conducted with standard procedures, e.g. as described by Cortij et al., Br. J. Pharmacol. 108:562, 1993 or Nicholsen CD et al., Trends Pharmacol. Sci. 12:19, 1991 have yielded the following results for compounds figuring among the examples envisaged within the framework of the invention described herein.

[2] = system: PDE4 Activity (L)PDE4; assay: IC50 for inhibition of PDE IV activity; type: biochemical; conditions: origin Human
Description: (§1) The following determination of IC50 for inhibition of PDE IV activity and competition at the rolipram receptor, conducted with standard processes, e.g. as described by Duplantier A. J. et al., J. Med. Chem. 39: 120, 1996 and by Thorphy T. J. et al., J Pharmacol. Exp. Ther., 263: 1195, 1992 have yielded the following results for compounds figuring among the examples envisaged within the framework of the invention described herein

[3] = system: Rolipram receptor (H)PDE4; assay: competition at the rolipram receptor; type: binding, Mouse; conditions: ratio IC50 (H)PDE4 / IC50 (L)PDE4
Description: as §1
(§2) N.C. means value not calculable because of no inhibition at the highest test concentration, however it means low affinity for rolipram receptor.

[4] = molecular target: T1, Rolipram receptor (H)PDE4; assay: competition at the rolipram receptor; type: binding, Mouse; conditions: origin Mouse brain
T1 construct: IC50(μM) Rolipram receptor (H)PDE4; other: origin Mouse brain
Description: as §1, §2

[5] = system: PDE1; assay: PDE selectivity, PDE1; type: biochemical, bovine
Description: (§3) These assays have yielded the following results for compounds figuring among the examples envisaged within the framework of the invention described herein.

[6] = molecular target: PDE2 (Homo sapiens, UniProt O00408); assay: PDE selectivity, PDE2; type: biochemical
PDE2, sequence (O00408 whole entry): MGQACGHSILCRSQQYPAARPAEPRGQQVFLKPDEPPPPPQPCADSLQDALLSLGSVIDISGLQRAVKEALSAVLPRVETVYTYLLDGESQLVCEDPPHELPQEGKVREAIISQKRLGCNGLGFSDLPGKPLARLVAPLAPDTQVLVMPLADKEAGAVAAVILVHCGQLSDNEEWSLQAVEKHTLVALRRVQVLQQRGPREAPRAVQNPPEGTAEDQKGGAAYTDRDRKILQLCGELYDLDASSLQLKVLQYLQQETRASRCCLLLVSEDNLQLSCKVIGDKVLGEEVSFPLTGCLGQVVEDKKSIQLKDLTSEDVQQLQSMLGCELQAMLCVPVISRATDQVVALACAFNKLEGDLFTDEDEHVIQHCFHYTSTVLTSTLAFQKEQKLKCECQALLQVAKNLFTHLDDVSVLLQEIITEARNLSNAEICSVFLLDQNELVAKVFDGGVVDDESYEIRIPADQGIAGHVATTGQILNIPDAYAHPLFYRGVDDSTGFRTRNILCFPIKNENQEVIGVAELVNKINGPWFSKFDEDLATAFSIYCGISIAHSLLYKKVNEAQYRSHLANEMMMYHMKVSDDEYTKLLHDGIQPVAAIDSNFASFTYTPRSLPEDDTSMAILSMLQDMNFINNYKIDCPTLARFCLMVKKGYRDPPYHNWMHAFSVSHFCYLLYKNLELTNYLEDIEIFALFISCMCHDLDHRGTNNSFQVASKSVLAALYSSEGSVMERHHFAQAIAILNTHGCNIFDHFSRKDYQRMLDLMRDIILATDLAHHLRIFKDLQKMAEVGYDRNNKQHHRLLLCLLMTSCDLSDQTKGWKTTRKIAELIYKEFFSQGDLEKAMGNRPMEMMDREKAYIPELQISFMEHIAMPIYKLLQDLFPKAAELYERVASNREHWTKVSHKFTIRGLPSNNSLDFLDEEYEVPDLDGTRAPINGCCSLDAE
Description: as §3

[7] = system: PDE3; assay: PDE selectivity, PDE3; type: biochemical, human
Description: as §3

[8] = system: PDE4; assay: PDE selectivity, PDE4; type: biochemical, human
Description: as §3

[9] = molecular target: PDE5 (Homo sapiens, UniProt O76074); assay: PDE selectivity, PDE5; type: biochemical
Description: as §3

[10] = system: PDE6; assay: PDE selectivity, PDE6; type: biochemical, bovine
Description: as §3

IC50 [2] [µM]	H/L [3]	IC50 [4] [µM]	Compound	% inhibition [1] [%]	also measured
8.7	>1.15	> 10	COC(=O)C(CC(=O)O)Cc1ccc(OC)c(OC2CCCC2)c1 (centres unmarked) [ST 1504]	84	
1.3	7.13	9.27	COC(=O)/C(=C/c1ccc(OC)c(OC2CCCC2)c1)CCC(=O)O [ST 1977, (4E)-5-[3-(ciclopentyloxy)-4-methoxyphenyl]-4-(methoxycarbonyl)-4-pentenoic acid]		
4.7	0.74	3.5	COC(=O)C(CC(=O)NO)Cc1ccc(OC)c(OC2CCCC2)c1 (racemic) [ST 1505, (R,S)-3-methoxycarbonyl-4-(3-cyclopentyloxy-4-methoxyphenyl)butane-hydroxamic acid]	86	
6.2			COC(=O)/C(=C/c1ccc(OC)c(OC2CCCC2)c1)CC(=O)O [ST 1503, (3E)-4-[3-(cyclopentyloxy)-4-methoxyphenyl]-3-(methoxycarbonyl)-3-butenoic acid]		
			COc1ccc(C(=O)CCC(=O)O)cc1OC1CCCC1 [ST 1689, 4-[3-(cyclopentyloxy)-4-methoxyphenyl]-4-oxo-butanoic acid]		melting point: 111 to 113 °C
1.2	0.51	0.615	COC(=O)/C(=C/c1ccc(OC)c(OC2CCCC2)c1)CC(=O)NO [ST 1701, methyl (2E)-3-[3-(cyclopentyloxy)-4-methoxyphenyl]-2-[2-(hydroxyamino)-2-oxoethyl]-2-propenoate]	88	% PDE inhibition at 100 μM PDE1 (bovine) [5]: 42%; inhibition at 100 µM [6]: 16%; % PDE inhibition at 100 μM PDE3 (human) [7]: 52%; % PDE inhibition at 100 μM PDE4 (human) [8]: 94%; inhibition at 100 µM [9]: 30%; % PDE inhibition at 100 μM PDE6 (bovine) [10]: 58%

Compound	IC50 [2] [µM]	H/L [3]	IC50 [4] [µM]	% inhibition [1] [%]	also measured
COC(=O)C/C(=C\c1ccc(OC)c(OC2CCCC2)c1)C(=O)OC [ST 1945, methyl (3E)-3-methoxycarbonyl-4-(3-cyclopentoxy-4-methoxyphenyl)-3-butenoate]	0.19	0.33	0.571		
